Experimental data taken from ChEMBL document CHEMBL5696442, “Discovery of type II inhibitors of TGFβ-activated kinase 1 (TAK1) and mitogen-activated protein kinase kinase kinase kinase 2 (MAP4K2)” (J Med Chem, 2015).
Calls of active or inactive are those of the source. No cut-off for these calls is given here.

Experiments:
[1] = target: 5'-AMP-activated protein kinase catalytic subunit alpha-2 (Homo sapiens) (UniProt P54646); assay: Inhibition of AMPKa2 Lys2 labeling site in human Huh-7 cell lysate at 1 uM by KiNativ Profiling analysis relative to control; type: subcellular
[2] = target: Cyclin-dependent kinase 1 (Homo sapiens) (UniProt P06493); assay: Inhibition of CDC2 Lys1 labeling site in human Huh-7 cell lysate at 1 uM by KiNativ Profiling analysis relative to control; type: subcellular
Chain of Cyclin-dependent kinase 1 (Homo sapiens) (P06493 whole entry, looked up): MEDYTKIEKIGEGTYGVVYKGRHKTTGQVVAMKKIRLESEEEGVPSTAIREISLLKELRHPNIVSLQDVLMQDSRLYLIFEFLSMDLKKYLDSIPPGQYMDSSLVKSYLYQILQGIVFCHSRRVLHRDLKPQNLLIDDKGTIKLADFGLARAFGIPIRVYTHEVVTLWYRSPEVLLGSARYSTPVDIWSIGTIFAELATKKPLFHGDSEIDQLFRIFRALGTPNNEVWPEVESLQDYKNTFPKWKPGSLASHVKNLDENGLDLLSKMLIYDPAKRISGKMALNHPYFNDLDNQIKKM

[3] = target: T1, Serine/threonine-protein kinase TAO2 (Homo sapiens) (UniProt Q9UL54); assay: Inhibition of TAO2 Lys2 labeling site in human Huh-7 cell lysate at 1 uM by KiNativ Profiling analysis relative to control; type: subcellular
T1 sequence (whole entry): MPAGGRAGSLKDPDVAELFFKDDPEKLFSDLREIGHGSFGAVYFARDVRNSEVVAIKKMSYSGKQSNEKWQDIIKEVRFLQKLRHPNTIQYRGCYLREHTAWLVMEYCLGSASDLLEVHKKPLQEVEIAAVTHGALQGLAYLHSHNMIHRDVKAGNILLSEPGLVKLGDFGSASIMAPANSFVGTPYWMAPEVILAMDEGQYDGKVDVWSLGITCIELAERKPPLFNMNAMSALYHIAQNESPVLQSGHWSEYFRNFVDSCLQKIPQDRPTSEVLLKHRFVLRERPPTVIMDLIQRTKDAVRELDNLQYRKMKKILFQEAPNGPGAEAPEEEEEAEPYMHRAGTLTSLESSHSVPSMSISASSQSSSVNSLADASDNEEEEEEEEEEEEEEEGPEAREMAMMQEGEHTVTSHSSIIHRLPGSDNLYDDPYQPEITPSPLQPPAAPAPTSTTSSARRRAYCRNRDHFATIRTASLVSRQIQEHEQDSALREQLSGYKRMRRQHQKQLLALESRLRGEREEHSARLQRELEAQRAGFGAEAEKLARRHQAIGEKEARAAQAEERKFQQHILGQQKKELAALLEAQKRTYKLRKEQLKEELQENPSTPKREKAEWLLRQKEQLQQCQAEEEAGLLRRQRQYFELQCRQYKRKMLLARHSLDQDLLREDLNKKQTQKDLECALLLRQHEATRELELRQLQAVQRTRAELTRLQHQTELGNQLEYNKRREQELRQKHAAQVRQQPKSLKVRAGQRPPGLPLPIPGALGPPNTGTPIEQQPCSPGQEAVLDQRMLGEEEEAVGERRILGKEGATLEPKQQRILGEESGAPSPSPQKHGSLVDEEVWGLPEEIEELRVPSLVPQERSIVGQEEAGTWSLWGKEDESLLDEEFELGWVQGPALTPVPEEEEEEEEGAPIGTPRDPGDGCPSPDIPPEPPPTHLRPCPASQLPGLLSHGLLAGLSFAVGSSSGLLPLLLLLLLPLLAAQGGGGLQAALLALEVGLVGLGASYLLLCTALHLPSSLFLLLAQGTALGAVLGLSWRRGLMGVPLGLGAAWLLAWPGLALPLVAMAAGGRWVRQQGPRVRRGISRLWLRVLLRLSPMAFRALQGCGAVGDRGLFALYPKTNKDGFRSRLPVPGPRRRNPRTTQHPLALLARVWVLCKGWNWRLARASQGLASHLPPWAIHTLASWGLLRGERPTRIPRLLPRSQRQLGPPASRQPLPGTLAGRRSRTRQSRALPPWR

[4] = target: Calcium/calmodulin-dependent protein kinase type 1 (Homo sapiens) (UniProt Q14012); assay: Inhibition of CaMK1a Lys1 labeling site in human Huh-7 cells at 1 uM by KiNativ Profiling analysis relative to control; type: cell-based
Chain of Calcium/calmodulin-dependent protein kinase type 1 (Homo sapiens) (Q14012 whole entry, looked up): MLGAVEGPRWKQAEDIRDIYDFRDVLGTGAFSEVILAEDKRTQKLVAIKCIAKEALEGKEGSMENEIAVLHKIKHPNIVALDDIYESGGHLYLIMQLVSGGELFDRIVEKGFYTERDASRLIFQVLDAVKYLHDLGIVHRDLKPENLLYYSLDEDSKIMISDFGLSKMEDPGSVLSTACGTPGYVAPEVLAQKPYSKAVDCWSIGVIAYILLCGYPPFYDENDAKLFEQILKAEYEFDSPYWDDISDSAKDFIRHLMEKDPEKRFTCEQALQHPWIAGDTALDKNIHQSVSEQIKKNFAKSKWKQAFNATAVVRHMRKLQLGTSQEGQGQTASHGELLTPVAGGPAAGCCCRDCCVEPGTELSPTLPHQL

[5] = target: Mitogen-activated protein kinase kinase kinase 20 (Homo sapiens, UniProt Q9NYL2); assay: Inhibition of ZAK Lys1 labeling site in human Huh-7 cells at 1 uM by KiNativ Profiling analysis relative to control; type: cell-based
[6] = system: Tyrosine-protein kinase ABL1 (Homo sapiens), P00519 [F317I]; assay: Inhibition of ABL1 F317I mutant (unknown origin) at 10 uM by Ambit Kinomescan binding assay relative to control
Chain of Tyrosine-protein kinase ABL1 (Homo sapiens), P00519 [F317I] (P00519 whole entry F317I): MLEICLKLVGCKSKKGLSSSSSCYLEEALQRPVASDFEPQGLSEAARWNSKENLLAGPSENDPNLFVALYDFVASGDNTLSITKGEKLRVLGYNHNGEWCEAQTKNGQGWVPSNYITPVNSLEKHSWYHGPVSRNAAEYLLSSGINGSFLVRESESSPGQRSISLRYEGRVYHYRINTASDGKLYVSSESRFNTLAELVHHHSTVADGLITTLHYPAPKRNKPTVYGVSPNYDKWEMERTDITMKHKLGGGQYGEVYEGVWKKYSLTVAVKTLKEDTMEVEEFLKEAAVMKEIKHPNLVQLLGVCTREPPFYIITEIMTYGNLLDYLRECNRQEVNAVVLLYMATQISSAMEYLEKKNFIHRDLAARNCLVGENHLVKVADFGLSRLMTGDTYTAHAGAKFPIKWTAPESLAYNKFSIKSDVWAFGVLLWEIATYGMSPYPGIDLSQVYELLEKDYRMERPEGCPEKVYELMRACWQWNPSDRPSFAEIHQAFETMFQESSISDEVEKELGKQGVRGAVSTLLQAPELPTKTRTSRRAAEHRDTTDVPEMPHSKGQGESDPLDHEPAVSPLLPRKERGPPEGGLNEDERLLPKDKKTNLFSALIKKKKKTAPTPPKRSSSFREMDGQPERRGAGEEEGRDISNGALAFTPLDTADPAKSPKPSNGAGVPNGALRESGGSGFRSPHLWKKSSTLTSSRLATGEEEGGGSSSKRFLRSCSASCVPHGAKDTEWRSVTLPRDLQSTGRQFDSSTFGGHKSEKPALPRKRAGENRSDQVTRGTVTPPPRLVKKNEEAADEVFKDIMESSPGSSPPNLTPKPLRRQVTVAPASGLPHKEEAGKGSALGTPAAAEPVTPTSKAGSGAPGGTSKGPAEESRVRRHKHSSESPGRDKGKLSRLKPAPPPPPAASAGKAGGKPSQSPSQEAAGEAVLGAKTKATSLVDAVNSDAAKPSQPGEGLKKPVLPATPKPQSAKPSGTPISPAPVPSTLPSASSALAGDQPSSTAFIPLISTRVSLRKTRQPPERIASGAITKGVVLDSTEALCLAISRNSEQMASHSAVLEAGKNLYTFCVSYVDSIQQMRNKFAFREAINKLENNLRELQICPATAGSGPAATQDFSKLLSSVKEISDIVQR

[7] = target: Calcium/calmodulin-dependent protein kinase type II subunit alpha (Homo sapiens) (UniProt Q9UQM7); assay: Inhibition of CAMK2A (unknown origin) at 10 uM by Ambit Kinomescan binding assay
Chain of Calcium/calmodulin-dependent protein kinase type II subunit alpha (Homo sapiens) (Q9UQM7 whole entry): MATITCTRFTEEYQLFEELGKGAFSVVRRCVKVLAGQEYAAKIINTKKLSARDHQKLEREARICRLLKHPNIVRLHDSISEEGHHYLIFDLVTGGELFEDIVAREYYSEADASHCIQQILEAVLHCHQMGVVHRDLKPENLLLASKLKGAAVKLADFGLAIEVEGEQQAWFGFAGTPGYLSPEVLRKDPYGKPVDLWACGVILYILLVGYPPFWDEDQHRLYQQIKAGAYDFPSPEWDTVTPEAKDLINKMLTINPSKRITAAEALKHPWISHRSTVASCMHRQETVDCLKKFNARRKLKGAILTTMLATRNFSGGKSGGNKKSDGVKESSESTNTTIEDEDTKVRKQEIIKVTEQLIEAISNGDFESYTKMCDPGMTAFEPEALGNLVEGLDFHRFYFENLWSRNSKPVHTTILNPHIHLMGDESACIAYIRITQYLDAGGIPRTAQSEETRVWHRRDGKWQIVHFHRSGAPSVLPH

[8] = target: Uncharacterized serine/threonine-protein kinase SBK3 (Homo sapiens) (UniProt P0C264); assay: Inhibition of SgK110 (unknown origin) at 10 uM by Ambit Kinomescan binding assay
Chain of Uncharacterized serine/threonine-protein kinase SBK3 (Homo sapiens) (P0C264 whole entry): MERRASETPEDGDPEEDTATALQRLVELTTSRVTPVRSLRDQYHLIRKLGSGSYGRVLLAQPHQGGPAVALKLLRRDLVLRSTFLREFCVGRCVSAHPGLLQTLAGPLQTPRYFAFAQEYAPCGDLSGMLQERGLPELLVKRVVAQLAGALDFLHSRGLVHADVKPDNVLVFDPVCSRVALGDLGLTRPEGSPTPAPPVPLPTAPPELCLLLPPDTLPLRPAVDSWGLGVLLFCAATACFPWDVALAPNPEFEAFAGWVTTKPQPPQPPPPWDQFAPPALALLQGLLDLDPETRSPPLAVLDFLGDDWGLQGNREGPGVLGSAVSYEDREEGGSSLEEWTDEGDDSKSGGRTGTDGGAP

[9] = target: Serine/threonine-protein kinase 38-like (Homo sapiens) (UniProt Q9Y2H1); assay: Inhibition of NDR2 Lys1 labeling site harbouring DTGHIYAMKILR in human A-375 cells at 0.5 uM by KiNativ Profiling analysis relative to control; type: cell-based
Chain of Serine/threonine-protein kinase 38-like (Homo sapiens) (Q9Y2H1 2-464 limits assumed): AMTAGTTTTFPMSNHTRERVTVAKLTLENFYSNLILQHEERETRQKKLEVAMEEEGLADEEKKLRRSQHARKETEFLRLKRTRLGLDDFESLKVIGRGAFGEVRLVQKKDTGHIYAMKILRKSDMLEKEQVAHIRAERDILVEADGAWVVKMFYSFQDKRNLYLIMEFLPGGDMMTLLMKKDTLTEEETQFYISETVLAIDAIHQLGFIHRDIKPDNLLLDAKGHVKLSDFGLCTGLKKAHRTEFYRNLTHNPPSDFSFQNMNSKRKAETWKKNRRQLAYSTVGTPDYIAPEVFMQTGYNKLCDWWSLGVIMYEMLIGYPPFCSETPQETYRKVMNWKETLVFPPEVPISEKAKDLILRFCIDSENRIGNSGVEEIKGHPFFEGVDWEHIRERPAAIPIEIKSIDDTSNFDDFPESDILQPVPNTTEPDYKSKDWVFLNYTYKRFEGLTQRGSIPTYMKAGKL

[10] = target: Cyclin-dependent kinase 5 (Homo sapiens) (UniProt Q00535); assay: Inhibition of CDK5 Lys1 labeling site in human A-375 cells at 0.05 uM by KiNativ Profiling analysis relative to control; type: cell-based
Chain of Cyclin-dependent kinase 5 (Homo sapiens) (Q00535 whole entry, looked up): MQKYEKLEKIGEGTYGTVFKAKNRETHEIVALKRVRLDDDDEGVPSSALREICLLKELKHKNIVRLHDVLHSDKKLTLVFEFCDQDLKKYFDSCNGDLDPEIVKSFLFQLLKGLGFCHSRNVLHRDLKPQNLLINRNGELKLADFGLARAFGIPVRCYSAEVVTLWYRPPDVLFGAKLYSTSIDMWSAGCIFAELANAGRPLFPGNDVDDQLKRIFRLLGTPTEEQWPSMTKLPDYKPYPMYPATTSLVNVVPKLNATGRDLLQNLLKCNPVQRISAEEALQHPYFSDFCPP

[11] = Inhibition of KHS1 K2 labeling site in human Huh-7 cells at 10 uM by KiNativ Profiling analysis relative to control; conditions: condition cancer
[12] = target: TRAF2 and NCK-interacting protein kinase (Homo sapiens) (UniProt Q9UKE5); assay: Inhibition of TNIK (unknown origin) at 1 uM by Ambit Kinomescan binding assay relative to control
[13] = target: Dual specificity protein kinase CLK1 (Homo sapiens) (UniProt P49759); assay: Inhibition of CLK1 (unknown origin) at 1 uM by Ambit Kinomescan binding assay relative to control; values are per cent of control
Chain of Dual specificity protein kinase CLK1 (Homo sapiens) (P49759 whole entry, looked up): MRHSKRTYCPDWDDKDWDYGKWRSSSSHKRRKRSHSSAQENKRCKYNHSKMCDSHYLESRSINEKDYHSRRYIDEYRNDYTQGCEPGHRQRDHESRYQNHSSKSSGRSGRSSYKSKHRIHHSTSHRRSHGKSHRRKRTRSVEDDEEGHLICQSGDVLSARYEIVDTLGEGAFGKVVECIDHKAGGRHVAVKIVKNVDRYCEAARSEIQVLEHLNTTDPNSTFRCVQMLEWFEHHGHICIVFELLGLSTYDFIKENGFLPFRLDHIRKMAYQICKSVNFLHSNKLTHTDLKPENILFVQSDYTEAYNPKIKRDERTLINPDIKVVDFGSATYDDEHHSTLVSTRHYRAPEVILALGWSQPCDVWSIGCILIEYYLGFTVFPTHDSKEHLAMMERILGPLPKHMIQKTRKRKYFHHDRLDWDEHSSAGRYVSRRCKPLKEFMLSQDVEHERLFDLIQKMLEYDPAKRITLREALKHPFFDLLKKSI

[14] = target: Maternal embryonic leucine zipper kinase (Homo sapiens) (UniProt Q14680); assay: Inhibition of MELK (unknown origin) at 1 uM by Ambit Kinomescan binding assay relative to control; values are per cent of control
Chain of Maternal embryonic leucine zipper kinase (Homo sapiens) (Q14680 whole entry, looked up): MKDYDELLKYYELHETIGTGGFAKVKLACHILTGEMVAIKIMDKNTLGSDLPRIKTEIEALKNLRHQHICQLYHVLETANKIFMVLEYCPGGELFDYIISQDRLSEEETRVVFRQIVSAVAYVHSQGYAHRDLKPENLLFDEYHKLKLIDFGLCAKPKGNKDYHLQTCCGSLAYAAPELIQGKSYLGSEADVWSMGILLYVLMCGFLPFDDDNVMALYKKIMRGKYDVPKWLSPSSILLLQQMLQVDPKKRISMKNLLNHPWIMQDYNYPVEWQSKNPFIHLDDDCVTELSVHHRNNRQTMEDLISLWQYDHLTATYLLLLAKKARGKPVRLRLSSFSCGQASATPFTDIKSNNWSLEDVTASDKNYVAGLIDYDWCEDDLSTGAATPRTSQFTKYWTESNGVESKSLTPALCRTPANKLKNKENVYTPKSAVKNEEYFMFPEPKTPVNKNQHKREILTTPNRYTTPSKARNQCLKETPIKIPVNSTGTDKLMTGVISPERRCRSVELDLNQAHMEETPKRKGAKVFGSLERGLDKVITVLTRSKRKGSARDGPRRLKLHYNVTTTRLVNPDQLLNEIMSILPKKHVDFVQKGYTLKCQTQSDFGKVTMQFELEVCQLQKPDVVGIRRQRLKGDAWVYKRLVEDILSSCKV

[15] = target: Casein kinase II subunit alpha' (Homo sapiens) (UniProt P19784); assay: Inhibition of CSNK2A2 (unknown origin) at 1 uM by Ambit Kinomescan binding assay relative to control; values are per cent of control
Chain of Casein kinase II subunit alpha' (Homo sapiens) (P19784 whole entry, looked up): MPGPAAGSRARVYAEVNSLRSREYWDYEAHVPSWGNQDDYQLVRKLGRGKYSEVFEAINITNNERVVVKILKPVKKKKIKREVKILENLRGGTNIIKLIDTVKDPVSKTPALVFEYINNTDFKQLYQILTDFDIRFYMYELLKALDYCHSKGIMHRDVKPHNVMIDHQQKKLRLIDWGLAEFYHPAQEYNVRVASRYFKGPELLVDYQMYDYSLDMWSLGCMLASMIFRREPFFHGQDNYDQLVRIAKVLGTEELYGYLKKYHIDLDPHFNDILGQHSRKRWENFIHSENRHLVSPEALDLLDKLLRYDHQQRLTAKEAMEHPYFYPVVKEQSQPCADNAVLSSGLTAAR

CNc1cc(Oc2cc(C(=O)Nc3cc(N4CCN(C)CC4)cc(C(F)(F)F)c3)ccc2C)ncn1
inhibition [1]: 0.5%
inhibition [2]: 21.5%
inhibition [3]: 7.5%
inhibition [4]: 3.6%
inhibition [5]: 13.8%

CCN1CCN(Cc2ccc(NC(=O)c3ccc(C)c(Oc4ccnc5[nH]ccc45)c3)cc2C(F)(F)F)CC1
inhibition [6]: 0.05%
inhibition [7]: inactive
inhibition [8]: inactive
inhibition [9]: 16.9%
inhibition [10]: 16.5%
inhibition at 10 µM [11]: 0.3%

CCN1CCN(Cc2ccc(NC(=O)c3ccc(C)c(/C=C/c4cnc5[nH]ccc5c4OC)c3)cc2C(F)(F)F)CC1
inhibition [12]: 14%
residual activity [13]: 59%
residual activity [14]: 72%
residual activity [15]: 77%
